{
  "source": "paper PMC10364322",
  "about": "“Evaluation of chronic drug-induced electrophysiological and cytotoxic effects using human-induced pluripotent stem cell-derived cardiomyocytes (hiPSC-CMs)” (Frontiers in Pharmacology, 2023)",
  "key": {"[1]": {"tested_on": "hiPSC-CMs (iCell-Cardiomyocytes^2)", "assay": "ApoLive-Glo Multiplex Assay: viability (live cells)", "assay_type": "cell-based, human", "protocol": "(§1) iCell-Cardiomyocytes^2 (Fujifilm Cellular Dynamics Inc., Madison, WI, United States) were seeded into 96 well-plates (Greiner Bio One, ref. 655946) according to the manufacturer instructions, at a density of 50 k cells/well. […] To assess effects on viability and cytotoxicity, two assay combination kits were used: 1) RealTime-Glo™ Annexin V Apoptosis and Necrosis Assay [Promega, JA1011 ([Kupcho et al., 2019])] and 2) ApoLive-Glo Multiplex Assay [Promega, G6410 ([Flörkemeier et al., 2022])]. The assays were performed according to manufacturer instructions. The experiments were repeated at 24, 48, and 72 h in order to assess any time-dependent change in live cells or activation of cell-death pathways.\n(§2) The nonparametric Wilcoxon-Mann Whitney Test was used to compare the percent change from the baseline (Δ%) value between the group treated with the compound at a given concentration and the group treated with the DMSO at each matching time points. A two-sided test at 5% significance level was considered. […] To assess the physiological relevance of changes, a tolerance interval of DMSO experiments was calculated at each time point, for each parameter. Specifically, the Δ% values of all (pooled) DMSO wells (N = 81) were used to obtain the non-parametric 80%–95% (p = 0.80 & 1-α = 0.95) tolerance interval (TI). TIs indicate an interval where, with a certain confidence level (1- α = 0.95), a specified proportion (p = 0.80) of percent change for DMSO data falls. The lower and upper limits based on the TI values were used as cut-offs for the interpretation of the changes. For the cytotoxicity assays, measurements of fluorescence (after background fluorescence subtraction) from wells treated with the compounds were normalized by the average value of vehicle experiments (DMSO 0.1%) to obtain a DMSO-corrected, delta/delta percent change. Experiments from each condition, as delta/delta percent, were averaged and expressed as mean ± SD. Statistical analysis was performed using a non-parametric test (Kruskal-Wallis) and each treatment condition was compared to the relative DMSO 0.1%. Differences were considered statistically significant when the p-value was smaller than 0.05."}, "[2]": {"tested_on": "hiPSC-CMs (iCell-Cardiomyocytes^2)", "assay": "RealTime-Glo Annexin V Apoptosis and Necrosis Assay: necrosis", "assay_type": "cell-based, human", "protocol": "as §1, §2"}, "[3]": {"tested_on": "caspases 3,7 in hiPSC-CMs", "assay": "ApoLive-Glo Multiplex Assay: apoptosis, caspases 3,7 activation", "assay_type": "cell-based, human", "protocol": "as §1, §2"}, "[4]": {"conditions": "free therapeutic Cmax in humans; ref FDA-approved drug packages, PharmaPendium; cited from earlier work"}, "[5]": {"tested_on": "Annexin V activation in hiPSC-CMs", "assay_type": "cell-based", "protocol": "The assays were performed according to manufacturer instructions.\nas §2, with “Specifically, the Δ% values of all (pooled) DMSO wells (N = 81) were used to obtain the non-parametric 80%–95% (p = 0.80 & 1-α = 0.95) tolerance interval (TI).” left out"}, "[6]": {"tested_on": "hiPSC-CMs (iCell-Cardiomyocytes^2)", "assay": "MEA impedance (cytotoxicity readout) in hiPSC-CMs"}},
  "note": "Where two headings read alike, the source gives them in different places.",
  "data": [
    {"smiles": "CCN(CC)CCNC(=O)c1c(C)[nH]c(/C=C2\\C(=O)Nc3ccc(F)cc32)c1C", "note": "[Sunitinib]", "values": [
      {"measurement": "Live Cells (viability), Mean±SD", "setting": "[1]; 1 µM, 24h", "value": "-12.5±1.8 Δ/Δ%"},
      {"measurement": "Live Cells (viability), Mean±SD", "setting": "[1]; 1 µM, 48h", "value": "-8.8±2.9 Δ/Δ%"},
      {"measurement": "Live Cells (viability), Mean±SD", "setting": "[1]; 1 µM, 72h", "value": "5.8±5.9 Δ/Δ%"},
      {"measurement": "number of live cells", "setting": "[1]; 3 µM", "value": "did not cause a relevant change"},
      {"measurement": "Live Cells (viability), Mean±SD", "setting": "[1]; 3 µM, 72h", "value": "-21.4±3.7 Δ/Δ%"},
      {"measurement": "Live Cells (viability), Mean±SD", "setting": "[1]; 3 µM, 24h", "value": "-1.8±19.3 Δ/Δ%"},
      {"measurement": "Live Cells (viability), Mean±SD", "setting": "[1]; 3 µM, 48h", "value": "-13.1±9.7 Δ/Δ%"},
      {"measurement": "number of live cells", "setting": "[1]; 10 µM, 24, 48, 72 h", "value": "significant decrease in the number of live cells"},
      {"measurement": "concentration at which decrease in live-cell count occurred, times the median fCmax", "setting": "[1]; 48 h time point", "value": "higher than 300"},
      {"measurement": "Necrosis, Mean±SD", "setting": "[2]; 1 µM, 72h", "value": "88.5±23.2 Δ/Δ%"},
      {"measurement": "necrosis-driven cell death", "setting": "[2]; especially at 10 µM", "value": "predominant necrosis-driven cell death"},
      {"measurement": "Caspases 3, 7 (apoptosis activation), Mean±SD", "setting": "[3]; 1 µM, 24h", "value": "11±8.3 Δ/Δ%"},
      {"measurement": "Caspases 3, 7 (apoptosis activation), Mean±SD", "setting": "[3]; 1 µM, 72h", "value": "70.2±31.9 Δ/Δ%"},
      {"measurement": "Caspases 3, 7 (apoptosis activation), Mean±SD", "setting": "[3]; 10 µM, 48h", "value": "42.9±61.5 Δ/Δ%"},
      {"measurement": "Caspases 3, 7 (apoptosis activation), Mean±SD", "setting": "[3]; 10 µM, 72h", "value": "-45±134.8 Δ/Δ%"},
      {"measurement": "Free Cmax", "setting": "[4]", "value": 30, "unit": "nM"},
      {"measurement": "Annexin V (apoptosis activation), Mean±SD", "setting": "[5]; 1 µM, 24h", "value": "-7.5±2.1 Δ/Δ%"},
      {"measurement": "Annexin V (apoptosis activation), Mean±SD", "setting": "[5]; 1 µM, 48h", "value": "-11.9±4.5 Δ/Δ%"},
      {"measurement": "Annexin V (apoptosis activation), Mean±SD", "setting": "[5]; 1 µM, 72h", "value": "-0.3±7 Δ/Δ%"},
      {"measurement": "Annexin V (apoptosis activation), Mean±SD", "setting": "[5]; 3 µM, 24h", "value": "7±8.3 Δ/Δ%"},
      {"measurement": "Annexin V (apoptosis activation), Mean±SD", "setting": "[5]; 10 µM, 48h", "value": "14.8±35.2 Δ/Δ%"},
      {"measurement": "Annexin V (apoptosis activation), Mean±SD", "setting": "[5]; 10 µM, 72h", "value": "-32.7±15.7 Δ/Δ%"},
      {"measurement": "Imp (impedance), % change from baseline", "setting": "[6]; 0.03 µM, 2h", "value": "5±4", "unit": "%"},
      {"measurement": "Imp (impedance), % change from baseline", "setting": "[6]; 0.03 µM, 24h", "value": "-12±3", "unit": "%"},
      {"measurement": "Imp (impedance), % change from baseline", "setting": "[6]; 0.03 µM, 48h", "value": "-8±6", "unit": "%"},
      {"measurement": "Imp (impedance), % change from baseline", "setting": "[6]; 0.03 µM, 72h", "value": "-8±4", "unit": "%"},
      {"measurement": "Imp (impedance), % change from baseline", "setting": "[6]; 0.03 µM, 96h", "value": "-4±4", "unit": "%"},
      {"measurement": "Imp (impedance), % change from baseline", "setting": "[6]; 0.1 µM, 2h", "value": "6±3", "unit": "%"},
      {"measurement": "Imp (impedance), % change from baseline", "setting": "[6]; 0.1 µM, 24h", "value": "-10±4", "unit": "%"},
      {"measurement": "Imp (impedance), % change from baseline", "setting": "[6]; 0.1 µM, 48h", "value": "-7±4", "unit": "%"},
      {"measurement": "Imp (impedance), % change from baseline", "setting": "[6]; 0.1 µM, 72h", "value": "-5±3", "unit": "%"},
      {"measurement": "Imp (impedance), % change from baseline", "setting": "[6]; 0.1 µM, 96h", "value": "-2±3", "unit": "%"},
      {"measurement": "Imp (impedance), % change from baseline", "setting": "[6]; 0.3 µM, 2h", "value": "5±6", "unit": "%"},
      {"measurement": "Imp (impedance), % change from baseline", "setting": "[6]; 0.3 µM, 24h", "value": "-7±3", "unit": "%"},
      {"measurement": "Imp (impedance), % change from baseline", "setting": "[6]; 0.3 µM, 48h", "value": "-3±5", "unit": "%"},
      {"measurement": "Imp (impedance), % change from baseline", "setting": "[6]; 0.3 µM, 72h", "value": "-3±2", "unit": "%"},
      {"measurement": "Imp (impedance), % change from baseline", "setting": "[6]; 0.3 µM, 96h", "value": "-3±3", "unit": "%"},
      {"measurement": "Imp (impedance), % change from baseline", "setting": "[6]; 1 µM, 2h", "value": "12±7", "unit": "%"},
      {"measurement": "Imp (impedance), % change from baseline", "setting": "[6]; 1 µM, 24h", "value": "-9±6", "unit": "%"},
      {"measurement": "Imp (impedance), % change from baseline", "setting": "[6]; 1 µM, 48h", "value": "-7±7", "unit": "%"},
      {"measurement": "Imp (impedance), % change from baseline", "setting": "[6]; 1 µM, 72h", "value": "-8±7", "unit": "%"},
      {"measurement": "Imp (impedance), % change from baseline", "setting": "[6]; 1 µM, 96h", "value": "-5±6", "unit": "%"},
      {"measurement": "effect on impedance", "setting": "[6]; all concentrations tested, up to 96 h", "value": "did not cause significant changes in the impedance signal"}
    ]}
  ]
}
